Source: patent US20010046504A1, “CYCLOPHOSPHAMIDE FILM-COATED TABLETS” (priority 1998, published 2001)

Format: physicochemical
Protocol: Investigations on the Compatibility of Cyclophosphamide with Various Tableting Auxiliaries […] The pressed tablets were stored at 31° C. for 6 months. The decomposition of the active compound was carried out [sic] by means of chloride determination.

Substance: Preswollen starch [Auxiliary 9]
- Stability of cyclophosphamide in the presence of auxiliary (in words): somewhat indifferent
